Measurements taken from US20230286973A1, “PROTEIN SECRETION INHIBITORS” (KEZAR LIFE SCIENCES, priority 2020, published 2023).

Key:
[1] = test system: TNFα-FL/Gaussia Luciferase; test: Dox Induced TNFα-FL-Gluc Assay; type: cell-based; conditions: for IC50: 24 hr Dox induction, 293FRT/TO cells, mean, read-out: 24 hr Dox Inducible TNFaFLGluc 293FRT/TO: Mean IC50; for 24 hr Dox Inducible TNFaFLGluc 293FRT/TO: TNF/PD1: ratio of TNFaFLGluc IC50 to PD1ssGluc IC50, '<=>' given where both are I.A.
Outline: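 Stereoisomer mixtures were tested where stereochemistry is not drawn. Induction used doxycycline added together with compound dilutions in DMSO/media to Flp-In 293 T-REx cells carrying a T-REx-regulated TNFα (aa 1-233)-Gaussia luciferase construct, then incubated at 37 °C, 5% CO2.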

[2] = test system: IL-2-FL/Gaussia Luciferase; test: Dox Induced IL2-FL-Gluc Assay; type: cell-based; conditions: for IC50: 24 hr Dox induction, 293FRT/TO cells, mean, read-out: 24 hr Dox Inducible IL2FLGluc 293FRT/TO: Mean IC50; for 24 hr Dox Inducible IL2FLGluc 293FRT/TO: IL2/PD1: ratio of IL2FLGluc IC50 to PD1ssGluc IC50, '<=>' given where both are I.A.
Outline: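 Cells are plated one day ahead, then receive compound dilutions in DMSO/media with doxycycline and incubate at 37° C, 5% CO2. They are Flp-In 293 T-REx cells expressing a full-length IL-2 (amino acids 1-153)–Gaussia luciferase fusion under T-REx control.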

[3] = test system: multiple myeloma cell line U266B1; test: U266 Cell Viability Assay; type: cell-based, human; conditions: Homo sapiens, U-266, 48 h, U266B1 cells, Celltiter-Glo
Outline: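 Steps: culture in RPMI 1640 plus 10% FBS and 2 mM glutamine; plate and add compound dilutions; incubate 48 hours at 37° C., 5% CO2; add CellTiter-Glo and quantify luciferase signal.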

[4] = test system: PD1-ss+10aa/Gaussia Luciferase; test: Dox-Induced PD1-ss-Gluc Assay; type: cell-based; conditions: 24 hr Dox induction; 293FRT/TO cells; mean; read-out: 24 hr Dox Inducible PD1ssGluc 293FRT/TO: Mean IC50
Outline: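 Flp-In 293 T-REx cells stably carrying a doxycycline-inducible Gaussia luciferase fused to the PD1 signal sequence plus 10 aa were plated the day before. Compound dilutions in DMSO/media containing doxycycline were then added and incubated at 37 °C, 5% CO2. Data for undefined stereochemistry refer to stereoisomer mixtures.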

[5] = test system: multiple myeloma cell line NCI-H929; test: H929 Cell Viability Assay; type: cell-based, human; conditions: Homo sapiens, NCI-H929, 48 h, NCI-H929 cells, Celltiter-Glo
Outline: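 Luminescent ATP detection (CellTiter-Glo) after 48 hours of compound exposure measures viability. Cells were plated in RPMI 1640 containing 10% fetal bovine serum and kept at 37° C under 5% CO2.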

[6] = Liver Microsome Stability Assay (mouse); conditions: mouse liver microsomes, with NADPH, 1.0 uM compound
Description: (§1) Stability of a compound was assessed in the presence of liver microsomes from various sources—mouse, rat, monkey and human liver microsomes. 1.0 uM compound, 0.4% DMSO in 0.1 M Potassium Phosphate with 1.0 mg/mL liver microsomes, were incubated at 37° C. with or without 1 mM NADPH. The samples were quenched at 0, and 30 minutes.

[7] = Liver Microsome Stability Assay (rat); conditions: rat liver microsomes, with NADPH, 1.0 uM compound
Description: as §1

[8] = Liver Microsome Stability Assay (monkey); conditions: monkey liver microsomes, with NADPH, 1.0 uM compound
Description: as §1

[9] = Liver Microsome Stability Assay (human); conditions: human liver microsomes, with NADPH, 1.0 uM compound
Description: as §1

[10] = test system: HER3-ss+4aa/Gaussia Luciferase; test: Dox-Induced Her3-ss-Gluc Assay; type: cell-based; conditions: 24 hr Dox induction; 293FRT/TO cells; mean; read-out: 24 hr Dox Inducible Her3(ss + 4)Gluc 293FRT/TO: Mean IC50
Outline: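 Cells were seeded a day ahead, then given compound diluted in DMSO/media with doxycycline to induce expression of the HER3 signal sequence (+4 aa)–Gaussia luciferase fusion. Incubation was at 37° C., 5% CO2, in a stable Flp-In 293 T-REx line.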

Compound	IC50 [1] [µM]	24 hr Dox Inducible TNFaFLGluc 293FRT/TO: TNF/PD1 [1]	IC50 [2] [µM]	24 hr Dox Inducible IL2FLGluc 293FRT/TO: IL2/PD1 [2]	EC50 [3] [µM]	IC50 [4] [µM]	EC50 [5] [µM]	Liver Microsome Stability (Multiple Species): Mouse - % Remaining after 30 min w/NADPH [6] [%]	Liver Microsome Stability (Multiple Species): Rat - % Remaining after 30 min w/NADPH [7] [%]	Liver Microsome Stability (Multiple Species): Monkey - % Remaining after 30 min w/NADPH [8] [%]	Liver Microsome Stability (Multiple Species): Human - % Remaining after 30 min w/NADPH [9] [%]	IC50 [10] [µM]
COc1ccc(O[C@H]2CC[C@H](c3csc(NC(=O)c4cccn4Cc4ccncc4)n3)C2)nc1 [Compound E38, N-(4-((1S,3S)-3-((5-methoxypyridin-2-yl)oxy)cyclopentyl)thiazol-2-yl)-1-(pyridin-4-ylmethyl)-1H-pyrrole-2-carboxamide]	5.28	10.7	1.87	3.8	23	0.493	23.8	0.25	0.33	0.13	0.1	1.12
COc1ccc(O[C@@H]2CCC[C@H](c3csc(NC(=O)c4cccn4Cc4ccncc4)n3)C2)nc1 [Compound E39, N-(4-((1S,3R)-3-((5-methoxypyridin-2-yl)oxy)cyclohexyl)thiazol-2-yl)-1-(pyridin-4-ylmethyl)-1H-pyrrole-2-carboxamide]	1.65	10.3	0.449	2.8	13.9	0.159	8.43	0.23	1.17	0.19	0.34	0.344
CC(=O)N1CCC(O[C@@H]2C[C@H](c3csc(NC(=O)c4cccn4Cc4ccncc4)n3)N(c3ccccc3)C2)CC1 [Compound E40, N-(4-((2R,4R)-4-((1-acetylpiperidin-4-yl)oxy)-1-phenylpyrrolidin-2-yl)thiazol-2-yl)-1-(pyridin-4-ylmethyl)-1H-pyrrole-2-carboxamide]	2.05	6.42	0.771	2.4	> 25	0.32	6.73	2.75	1.43	0.1	0.43	0.645
COc1ccc(O[C@H]2CCC[C@H](c3csc(NC(=O)c4cccn4Cc4ccncc4)n3)C2)nc1 [Compound E41, N-(4-((1S,3S)-3-((5-methoxypyridin-2-yl)oxy)cyclohexyl)thiazol-2-yl)-1-(pyridin-4-ylmethyl)-1H-pyrrole-2-carboxamide]	1.56	5.2	0.538	1.8	14.4	0.301	7.74	0.41	0.61	0.34	0.33	0.57
COc1ccc(O[C@@H]2CC[C@H](c3csc(NC(=O)c4cccn4Cc4ccncc4)n3)C2)nc1 [Compound E42, N-(4-((1S,3R)-3-((5-methoxypyridin-2-yl)oxy)cyclopentyl)thiazol-2-yl)-1-(pyridin-4-ylmethyl)-1H-pyrrole-2-carboxamide]	8.11	17.2	2.59	5.5	> 25	0.473	17.3	0.18	0.38	0.26	0.09	1.12
O=C(Nc1nc([C@@H]2CCN(c3ccccn3)C2)cs1)c1cccn1Cc1ccncc1 [Compound E43, (R)-N-(4-(1-(pyridin-2-yl)pyrrolidin-3-yl)thiazol-2-yl)-1-(pyridin-4-ylmethyl)-1H-pyrrole-2-carboxamide]	21.4	18.8	10.9	9.6	20.3	1.14	16.7	0.5	0.9	0.35	0.28	3.15
O=C(Nc1nc([C@H]2CCN(c3ccccn3)C2)cs1)c1cccn1Cc1ccncc1 [Compound E44, (S)-N-(4-(1-(pyridin-2-yl)pyrrolidin-3-yl)thiazol-2-yl)-1-(pyridin-4-ylmethyl)-1H-pyrrole-2-carboxamide]	11.6	25.5	2.72	6	> 25	0.453	22.9	0.24	0.72	0.59	0.5	1.32
O=C(Nc1nc([C@H]2CCCN(c3ccccn3)C2)cs1)c1cccn1Cc1ccncc1 [Compound E45, (S)-N-(4-(1-(pyridin-2-yl)piperidin-3-yl)thiazol-2-yl)-1-(pyridin-4-ylmethyl)-1H-pyrrole-2-carboxamide]	6.03	11.4	2.37	4.5	14.3	0.531	17.3	2.25	1.2	0.23	0.19	1.45
O=C(Nc1nc([C@H]2CCCN2c2cccnc2)cs1)c1cccn1Cc1ccncc1 [Compound E46, (R)-N-(4-(1-(pyridin-3-yl)pyrrolidin-2-yl)thiazol-2-yl)-1-(pyridin-4-ylmethyl)-1H-pyrrole-2-carboxamide]	0.529	18.1	0.115	3.9	> 25	0.0291	3.65	22.1	1.85	0.6	7.36	0.0604
O=C(Nc1nc([C@@H]2CCCN(c3ccccn3)C2)cs1)c1cccn1Cc1ccncc1 [Compound E47, (R)-N-(4-(1-(pyridin-2-yl)piperidin-3-yl)thiazol-2-yl)-1-(pyridin-4-ylmethyl)-1H-pyrrole-2-carboxamide]	4.06	7.43	1.44	2.6	13.9	0.547	10.4	0.55	2.13	5.23	0.57	1.43
